What follows are compounds tested on rabbit skeletal myofibrils (approximately 90% fast fibers) (assay: Activation of fast skeletal myofibrils (PUMA coupled-enzyme ATPase assay at pCa25)). Settings: concentration at which the compound increased the enzymatic activity by 40%; calcium at pCa25; PM12 buffer pH 6.8.
Format: biochemical
Summary of the method: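 Detergent-washed rabbit psoas myofibrils tested at calcium giving 25% of maximal rate (pCa25). ATPase activity tracked by pyruvate kinase/lactate dehydrogenase coupling, NADH oxidation read as absorbance at 340 nm, in PM12 buffer (12 mM Pipes, 2 mM MgCl2, 1 mM DTT, pH 6.8).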

SMILES | Mean AC1.4
CCOC(=O)c1nnc(-c2cnc(NC(C)(C)c3ncccc3Cl)nc2)o1 [ethyl 5-(2-{[1-(3-chloro(2-pyridyl))-isopropyl]amino}pyrimidin-5-yl)-1,3,4-oxadiazole-2-carboxylate] | D (D=>20 uM)
CSc1ccccc1C(C)(C)Nc1ncc(-c2cccc(C#N)c2)cn1 [3-(2-{[1-methyl-1-(2-methylthiophenyl)ethyl]amino}pyrimidin-5-yl)benzenecarbonitrile] | A (A=<1 uM)
CC(C)(Nc1ncc(-c2cn3c(C(=O)O)csc3n2)cn1)c1ncccc1Cl | B (B=1-10 uM)
O=C(O)c1cccc(-c2cnc(NC[C@]3(c4ncccc4F)C[C@H](F)C3)nc2O)c1 [3-[2-({[3-fluoro-1-(3-fluoro(2-pyridyl))cyclobutyl]methyl}amino)-4-hydroxypyrimidin-5-yl] benzoic acid] | D (D=>20 uM)
COc1ncc(-c2cnc(NC(C)(C)c3ncccc3Cl)nc2)cc1C(N)=O [5-(2-{[1-(3-chloro(2-pyridyl))-isopropyl]amino}pyrimidin-5-yl)-2-methoxypyridine-3-carboxamide] | B (B=1-10 uM)
NC(=O)Cc1cnc(-c2cnc(NCC3(c4ncccc4F)CCC3)nc2)s1 [2-{2-[2-({[(3-fluoro-2-pyridyl)cyclobutyl]methyl}amino)pyrimidin-5-yl]-1,3-thiazol-5-yl}acetamide] | B (B=1-10 uM)
CC(C)(Nc1ncc(-c2cn3cc(C(=O)O)ccc3n2)cn1)c1ncccc1Cl [2-(2-{[1-(3-chloro(2-pyridyl))-isopropyl]amino}pyrimidin-5-yl)-4-hydroimidazo[1,2-a]pyridine-6-carboxylic acid] | D (D=>20 uM)
CC(C)(Nc1ncc(-c2ncc(CNC(=O)C3(N)CC3)s2)cn1)c1ncccc1F [(aminocyclopropyl)-N-{[2-(2-{[1-(3-fluoro(2-pyridyl))-isopropyl]amino}pyrimidin-5-yl)(1,3-thiazol-5-yl)]methyl)carboxamide] | D (D=>20 uM)
CC(C)(Nc1ncc(-n2cc(C(=O)NCCO)cn2)cn1)c1ncccc1Cl [[1-(2-{[1-(3-chloro(2-pyridyl))-isopropyl]amino}pyrimidin-5-yl)pyrazol-4-yl]-N-(2-hydroxyethyl)carboxamide] | D (D=>20 uM)
COC(=O)Cc1ccc(F)c(-c2cnc(NC(C)(C)c3ncccc3F)nc2)c1 [methyl 2-[4-fluoro-3-(2-{[1-(3-fluoro(2-pyridyl))-isopropyl]amino}pyrimidin-5-yl)phenyl]acetate] | C (C=10-20 uM)
NC(=O)c1ccc(O)c(-c2cnc(NC[C@]3(c4ncccc4F)C[C@H](F)C3)nc2)c1 [3-[2-({[3-fluoro-1-(3-fluoro(2-pyridyl))cyclobutyl]methyl}amino)pyrimidin-5-yl]-4-hydroxybenzamide] | A (A=<1 uM)
NC(=O)c1cnn(-c2cnc(NCC3(c4ncccc4F)CCC3)nc2)c1 [1-[2-({[(3-fluoro-2-pyridyl)cyclobutyl]methyl}amino)pyrimidin-5-yl] pyrazole-4-carboxamide] | B (B=1-10 uM)
CC(C)(Nc1ncc(-c2ncc(C(N)=O)s2)cn1)c1ncccc1Cl [2-(2-{[1-(3-chloro(2-pyridyl))-isopropyl]amino}pyrimidin-5-yl)-1,3-thiazole-5-carboxamide] | B (B=1-10 uM)
CC(C)(CNc1ncc(-c2cccc(C(N)=O)c2)cn1)c1ccc(F)cc1 [3-(2-{[2-(4-fluorophenyl)-2-methylpropyl]amino}pyrimidin-5-yl)benzamide] | A (A=<1 uM)
Fc1cccnc1[C@]1(CNc2ncccn2)C[C@@H](F)C1 [{[3-fluoro-1-(3-fluoro(2-pyridyl))cyclobutyl]methyl}pyrimidin-2-ylamine] | D (D=>20 uM)
CC(C)(CNc1ncc(Br)cn1)c1ccc(F)cc1 [5-Bromo-N-(2-(4-fluorophenyl)-2-methylpropyl)pyrimidin-2-amine] | D (D=>20 uM)
CC(C)(Nc1ncc(-n2cc(CNC(=O)CCN)cn2)cn1)c1ncccc1Cl [3-amino-N-{[1-(2-{[1-(3-chloro(2-pyridyl))-isopropyl]amino}pyrimidin-5-yl)pyrazol-4-yl]methyl}propanamide] | B (B=1-10 uM)
COC(=O)CNC(=O)c1cnc(NCC2(c3ncccc3F)CCC2)nc1 [methyl 2-{[2-({[(3-fluoro-2-pyridyl)cyclobutyl]methyl}amino)pyrimidin-5-yl]carbonylamino} acetate] | D (D=>20 uM)
CC(C)(Nc1ncc(-c2ncc(CN)s2)cn1)c1ncccc1Cl [{5-[5-(aminomethyl)(1,3-thiazol-2-yl)]pyrimidin-2-yl}[1-(3-chloro(2-pyridyl))-isopropyl]amine] | D (D=>20 uM)

SMILES | Mean AC1.4
CC(C)(C)OC(=O)NCc1cnc(-c2cnc(NCC3(c4ncccc4Cl)CCC3)nc2)s1 [(tert-butoxy)-N-({2-[2-({[(3-chloro(2-pyridyl))cyclobutyl]methyl}amino)pyrimidin-5-yl](1,3-thiazol-5-yl)}methyl)carboxamide] | A (A=<1 uM)
NC(=O)c1ccccc1-c1cnc(NC[C@]2(c3ncccc3F)C[C@H](F)C2)nc1 [2-[2-({[3-fluoro-1-(3-fluoro(2-pyridyl))cyclobutyl]methyl}amino)pyrimidin-5-yl]benzamide] | C (C=10-20 uM)
COC(=O)c1cnc(NCC(C)(C)c2ccc(F)cc2)nc1 [methyl 2-{[2-(4-fluorophenyl)-2-methylpropyl]amino}pyrimidine-5-carboxylate] | D (D=>20 uM)
COc1ccc(C)nc1-c1cnc(NC[C@]2(c3ncccc3F)C[C@H](F)C2)nc1 [{[3-fluoro-1-(3-fluoro(2-pyridyl))cyclobutyl]methyl}[5-(3-methoxy-6-methyl(2-pyridyl))pyrimidin-2-yl]amine] | C (C=10-20 uM)
N#Cc1cnc(-c2cnc(NCC3(c4ccccn4)CCC3)nc2)s1 [2-(2-{[(2-pyridylcyclobutyl)methyl]amino}pyrimidin-5-yl)-1,3-thiazole-5-carbonitrile] | D (D=>20 uM)
CC(C)(Nc1ncc(-c2ncc(C(N)=O)o2)cn1)c1ncccc1Cl [2-(2-{[1-(3-chloro(2-pyridyl))-isopropyl]amino}pyrimidin-5-yl)-1,3-oxazole-5-carboxamide] | D (D=>20 uM)
Oc1ncc(-c2cnc(N3CC4(c5ncccc5F)CC3C4)nc2)cn1 [5-{2-[4-(3-fluoro-2-pyridyl)-2-azabicyclo[2.1.1]hex-2-yl]pyrimidin-5-yl}pyrimidin-2-ol] | D (D=>20 uM)
CC(C)(CNc1ncc2c(n1)CN(C(N)=O)CC2)c1ccc(F)cc1 [2-{[2-(4-fluorophenyl)-2-methylpropyl]amino}-5,6,7,8-tetrahydropyridino[3,4-d]pyrimidine-7-carboxamide] | D (D=>20 uM)
CC(C)(CNc1ncc(-c2ccc3[nH]nc(N)c3c2)cn1)c1ccc(F)cc1 [[5-(3-amino(1H-indazol-5-yl))pyrimidin-2-yl][2-(4-fluorophenyl)-2-methylpropyl]amine] | A (A=<1 uM)
NC(=O)c1cccc(-c2cnc(NC[C@]3(c4ncccc4F)C[C@H](F)C3)nc2O)c1 [3-[2-({[3-fluoro-1-(3-fluoro(2-pyridyl))cyclobutyl]methyl}amino)-4-hydroxypyrimidin-5-yl]benzamide] | B (B=1-10 uM)
N#Cc1ccc(F)c(-c2cnc(NCC3(c4ncccc4Cl)CCC3)nc2)c1 [3-[2-({[(3-chloro(2-pyridyl))cyclobutyl]methyl}amino)pyrimidin-5-yl]-4-fluorobenzenecarbonitrile] | A (A=<1 uM)
Cc1nc(NC[C@]2(c3ncccc3F)C[C@H](F)C2)ncc1-c1ccc(CC(=O)O)cc1 [2-{4-[2-({[3-fluoro-1-(3-fluoro(2-pyridyl))cyclobutyl]methyl}amino)-4-methylpyrimidin-5-yl]phenyl}acetic acid] | D (D=>20 uM)
NC(=O)c1cnc(NC2(c3ccc(F)cc3)CCC2)nc1C(F)(F)F [2-{[(4-fluorophenyl)cyclobutyl]amino}-4-(trifluoromethyl)pyrimidine-5-carboxamide] | B (B=1-10 uM)
CC(C)(Nc1ncc(-c2nc(C(=O)O)cs2)cn1)c1ncccc1Cl [2-(2-{[1-(3-chloro(2-pyridyl))-isopropyl]amino}pyrimidin-5-yl)-1,3-thiazole-4-carboxylic acid] | D (D=>20 uM)
O=C(NCCO)c1cnc(NCC2(c3ncccc3F)CCC2)nc1 [[2-({[(3-fluoro(2-pyridyl))cyclobutyl]methyl}amino)pyrimdin-5-yl]-N-(2-hydroxyethyl)carboxamide] | D (D=>20 uM)
CS(=O)(=O)N1CC(NC(=O)c2ccc(F)c(-c3cnc(NC[C@]4(c5ncccc5F)C[C@H](F)C4)nc3)c2)C1 [{4-fluoro-3-[2-({[3-fluoro-1-(3-fluoro(2-pyridyl))cyclobutyl)]methyl}amino)pyridin-5-yl]phenyl}-N-[1-(methylsulfonyl)azetidin-3-yl]carboxamide] | 6 µM
CC(C)(Nc1ncc(-c2cn3cc(C(N)=O)sc3n2)cn1)c1ncccc1Cl [6-(2-{[1-(3-chloro(2-pyridyl))-isopropyl}amino}pyrimidin-5-yl) imidazo[2,1-b]1,3-thiazoline-2-carboxamide] | D (D=>20 uM)
NC(=O)c1ccn(-c2cnc(NC[C@]3(c4ncccc4F)C[C@H](F)C3)nc2)c1 [1-[2-({[3-fluoro-1-(3-fluoro(2-pyridyl))cyclobutyl]methyl}amino)pyrimidin-5-yl]pyrrole-3-carboxamide] | A (A=<1 uM)

From patent US11369565B2, “Amino-pyrimidine skeletal muscle modulators” (Cytokinetics, Inc., priority 2010, dated 2022)
